The test concerns the target Mitogen-activated protein kinase 1 (Homo sapiens, UniProt P28482). The test can be described thus: Enzymatic Assay: Compounds were tested in an enzymatic assay using human ERK-2 (Mitogen Activated Kinase 1), recombinantly expressed as an n-terminal 6-His fusion protein in E. coli and corresponding to aa 8-360. […] Test compounds were diluted in DMSO in 3-fold serial dilutions at 100x final concentrations.

Chain of Mitogen-activated protein kinase 1 (P28482 whole entry, the tested form may be a part): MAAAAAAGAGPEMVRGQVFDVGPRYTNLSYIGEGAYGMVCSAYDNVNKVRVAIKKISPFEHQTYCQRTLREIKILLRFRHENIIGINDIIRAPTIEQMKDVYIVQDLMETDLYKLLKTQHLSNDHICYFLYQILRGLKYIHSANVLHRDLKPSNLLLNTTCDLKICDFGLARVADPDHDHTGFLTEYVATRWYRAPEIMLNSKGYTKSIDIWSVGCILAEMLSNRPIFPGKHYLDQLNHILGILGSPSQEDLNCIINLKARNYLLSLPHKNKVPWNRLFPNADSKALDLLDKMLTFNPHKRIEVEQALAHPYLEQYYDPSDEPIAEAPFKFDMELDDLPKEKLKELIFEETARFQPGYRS

Regarding `CC(C)Nc1ncc2c(n1)CN(C(=O)N[C@@H](c1ccc(C(F)(F)F)c(F)c1)c1cccc(=O)[nH]1)CC2`, the concentration for half-maximal inhibition (IC50) was found to be 144 nM.

For the compound `CC1CC(Nc2ncc3c(n2)CN(C(=O)N[C@H](CO)c2ccc(Cl)c(F)c2)CC3)CCO1` (some centres not stated), the IC50 is 2.39 nM.

These data come from ChEMBL document CHEMBL3886249, “Serine/threonine kinase inhibitors” (2015).
